Reference: ChEMBL document CHEMBL2321700, “Bodilisant-a novel fluorescent, highly affine histamine h3 receptor ligand” (ACS Med Chem Lett, 2013)

How the values were obtained:
[1] = molecular target: D(1B) dopamine receptor (Homo sapiens, UniProt P21918); assay: Displacement of [3H]SCH23390 from human dopamine D5 receptor expressed in HEK cells; type: cell-based, HEK293
[2] = molecular target: D(1A) dopamine receptor (Homo sapiens, UniProt P21728); assay: Displacement of [3H]SCH23390 from human dopamine D1 receptor expressed in HEK cells; type: cell-based, HEK293
D(1A) dopamine receptor, sequence (P21728 whole entry): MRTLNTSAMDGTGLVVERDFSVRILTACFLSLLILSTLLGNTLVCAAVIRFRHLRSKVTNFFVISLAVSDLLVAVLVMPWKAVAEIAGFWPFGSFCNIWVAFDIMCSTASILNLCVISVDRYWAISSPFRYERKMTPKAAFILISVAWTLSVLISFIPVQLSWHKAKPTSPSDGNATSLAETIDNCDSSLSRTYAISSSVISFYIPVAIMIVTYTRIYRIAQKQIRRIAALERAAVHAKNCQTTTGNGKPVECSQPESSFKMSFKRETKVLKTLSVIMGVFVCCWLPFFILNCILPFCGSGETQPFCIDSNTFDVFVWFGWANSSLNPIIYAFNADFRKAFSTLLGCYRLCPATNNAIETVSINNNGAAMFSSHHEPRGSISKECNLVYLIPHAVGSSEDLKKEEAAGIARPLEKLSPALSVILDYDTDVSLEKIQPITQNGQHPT

[3] = molecular target: D(3) dopamine receptor (Homo sapiens, UniProt P35462); assay: Displacement of [3H]spiperone from human dopamine D3 receptor expressed in CHO-K1 cells; type: cell-based
D(3) dopamine receptor, sequence (P35462 whole entry): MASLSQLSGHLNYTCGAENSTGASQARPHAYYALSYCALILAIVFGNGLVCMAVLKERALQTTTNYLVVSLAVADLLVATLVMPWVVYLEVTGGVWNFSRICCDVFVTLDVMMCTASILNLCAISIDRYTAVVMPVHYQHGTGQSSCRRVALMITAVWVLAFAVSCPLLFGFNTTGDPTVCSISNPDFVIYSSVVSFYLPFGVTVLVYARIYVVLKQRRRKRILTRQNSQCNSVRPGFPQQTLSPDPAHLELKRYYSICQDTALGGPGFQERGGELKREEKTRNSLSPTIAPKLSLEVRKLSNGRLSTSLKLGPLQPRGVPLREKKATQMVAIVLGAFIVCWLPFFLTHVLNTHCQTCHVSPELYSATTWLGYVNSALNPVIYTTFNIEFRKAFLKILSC

[4] = molecular target: D(2) dopamine receptor (Homo sapiens, UniProt P14416); assay: Displacement of [3H]spiperone from human dopamine D2short receptor expressed in CHO-K1 cells; type: cell-based
D(2) dopamine receptor, sequence (P14416 whole entry): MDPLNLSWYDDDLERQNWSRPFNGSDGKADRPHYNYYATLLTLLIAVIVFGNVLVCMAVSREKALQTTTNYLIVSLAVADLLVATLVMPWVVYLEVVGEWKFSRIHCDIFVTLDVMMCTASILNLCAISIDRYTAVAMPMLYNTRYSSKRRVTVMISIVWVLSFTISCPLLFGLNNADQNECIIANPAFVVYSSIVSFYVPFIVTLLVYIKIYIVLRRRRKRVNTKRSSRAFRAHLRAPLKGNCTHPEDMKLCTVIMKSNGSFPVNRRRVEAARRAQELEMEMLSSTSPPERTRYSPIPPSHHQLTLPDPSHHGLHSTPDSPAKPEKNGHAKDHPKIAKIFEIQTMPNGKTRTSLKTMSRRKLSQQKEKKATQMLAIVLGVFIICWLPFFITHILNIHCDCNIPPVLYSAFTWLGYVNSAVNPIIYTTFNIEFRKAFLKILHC

[5] = molecular target: Histamine H1 receptor (Homo sapiens, UniProt P35367); assay: Displacement of [3H]pyrilamine from human histamine H1 receptor expressed in CHO-K1 cells; type: cell-based
Histamine H1 receptor, sequence (P35367 whole entry): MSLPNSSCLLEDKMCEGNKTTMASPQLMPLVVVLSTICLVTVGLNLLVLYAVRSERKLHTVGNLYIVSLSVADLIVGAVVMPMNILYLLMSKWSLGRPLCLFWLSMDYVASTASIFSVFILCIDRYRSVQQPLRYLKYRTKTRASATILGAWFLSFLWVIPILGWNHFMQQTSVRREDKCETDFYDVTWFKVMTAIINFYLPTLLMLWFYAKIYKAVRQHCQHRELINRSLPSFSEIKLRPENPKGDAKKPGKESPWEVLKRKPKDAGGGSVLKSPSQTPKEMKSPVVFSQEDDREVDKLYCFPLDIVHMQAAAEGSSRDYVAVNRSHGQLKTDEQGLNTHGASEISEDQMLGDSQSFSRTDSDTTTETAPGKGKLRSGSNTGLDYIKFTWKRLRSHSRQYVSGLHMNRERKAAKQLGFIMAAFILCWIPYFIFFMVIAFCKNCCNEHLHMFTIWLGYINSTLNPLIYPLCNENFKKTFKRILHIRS

[6] = molecular target: Histamine H4 receptor (Homo sapiens, UniProt Q9H3N8); assay: Displacement of [3H]histamine from human histamine H4 receptor expressed in Sf9 cells
Histamine H4 receptor, sequence (Q9H3N8 whole entry): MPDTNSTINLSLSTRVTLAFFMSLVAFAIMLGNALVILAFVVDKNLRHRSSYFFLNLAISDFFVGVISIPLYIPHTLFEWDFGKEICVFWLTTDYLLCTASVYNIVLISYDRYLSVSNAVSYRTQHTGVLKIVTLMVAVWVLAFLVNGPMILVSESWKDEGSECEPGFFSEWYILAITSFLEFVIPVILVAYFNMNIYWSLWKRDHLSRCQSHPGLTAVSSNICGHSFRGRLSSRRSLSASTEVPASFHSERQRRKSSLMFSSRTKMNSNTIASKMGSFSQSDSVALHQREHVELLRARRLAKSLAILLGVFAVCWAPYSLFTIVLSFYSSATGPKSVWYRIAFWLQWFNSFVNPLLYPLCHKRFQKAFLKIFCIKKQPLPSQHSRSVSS

[7] = molecular target: Histamine H3 receptor (Homo sapiens, UniProt Q9Y5N1); assay: Displacement of [3H]Nalpha-methylhistamine from human recombinant histamine H3 receptor expressed in HEK-293 cells; type: cell-based, HEK293
Histamine H3 receptor, sequence (Q9Y5N1 whole entry): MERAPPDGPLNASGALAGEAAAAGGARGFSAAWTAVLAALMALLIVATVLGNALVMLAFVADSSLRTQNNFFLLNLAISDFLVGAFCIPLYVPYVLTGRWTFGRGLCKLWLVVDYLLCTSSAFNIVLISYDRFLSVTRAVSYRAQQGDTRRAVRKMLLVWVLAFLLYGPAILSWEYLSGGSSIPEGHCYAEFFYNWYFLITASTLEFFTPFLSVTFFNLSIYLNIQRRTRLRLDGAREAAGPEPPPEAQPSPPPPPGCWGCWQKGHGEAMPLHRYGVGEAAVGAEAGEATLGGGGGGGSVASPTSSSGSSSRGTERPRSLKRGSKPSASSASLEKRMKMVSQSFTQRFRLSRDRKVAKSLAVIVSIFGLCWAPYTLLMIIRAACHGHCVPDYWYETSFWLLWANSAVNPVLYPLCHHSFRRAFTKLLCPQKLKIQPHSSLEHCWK

D(1B) dopamine receptor, sequence (P21918 whole entry): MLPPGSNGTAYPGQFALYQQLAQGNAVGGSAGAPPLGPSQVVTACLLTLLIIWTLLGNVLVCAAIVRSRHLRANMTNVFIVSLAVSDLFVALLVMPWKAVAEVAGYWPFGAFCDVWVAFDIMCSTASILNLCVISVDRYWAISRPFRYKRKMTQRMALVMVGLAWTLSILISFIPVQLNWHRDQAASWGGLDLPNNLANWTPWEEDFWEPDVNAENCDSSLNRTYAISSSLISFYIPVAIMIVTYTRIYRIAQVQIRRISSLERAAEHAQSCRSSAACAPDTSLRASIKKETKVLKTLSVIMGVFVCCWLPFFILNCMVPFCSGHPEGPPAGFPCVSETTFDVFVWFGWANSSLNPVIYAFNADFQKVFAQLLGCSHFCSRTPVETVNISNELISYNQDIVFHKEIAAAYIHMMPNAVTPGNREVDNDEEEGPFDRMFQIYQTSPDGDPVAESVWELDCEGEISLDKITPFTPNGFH

`CC1=CC(C)=[N+]2C1=C(c1ccc(OCCCN3CCCCC3)cc1)c1c(C)cc(C)n1[B-]2(F)F` [BODILISANT] gave a Ki [1] of 5210 nM, a Ki [2] of 12500 nM and a Ki [3] of 1490 nM. For the same compound, the Ki [4] was 1970 nM, the Ki [5] was 1660 nM and the Ki [6] was 7480 nM. For the same compound, the Ki [7] was 6.51 nM.
